Reference: patent US20030199671A1, “Binding molecules for Fc-region polypeptides” (priority 2001, published 2003)
Positions of bridges follow the written chain, without caps; N, C: chain ends. Residues, ends and D or L forms follow the SMILES beside them.

Key:
Type in all cases: binding
IgG4 = IgG4 (Homo sapiens, UniProt P01861); design: all human subtypes derived from myeloma patients; purchased Calbiochem 400126; host or cells: myeloma patients
How it was run: (§1)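 Read-out is A280 of unbound IgG (1.4 mg/ml extinction coefficient), with percent bound derived against non-filtered or negative controls. Targets were incubated with immobilized peptides in PBST or TBST for 1-1.5 h at room temperature. Hydrolyzed Sepharose and immobilized Protein A serve as negative and positive controls.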

goat IgG = test system: goat IgG
How it was run: (§2)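 Static binding, peptide resin + IgG, 1-1.5 h RT with shaking, PBST pH 7.2 or TBST pH 7.5. Flow-through read at A280 vs buffer blank; % bound = control minus unbound. Elution at pH 8.5 bicarbonate and/or pH 4.0 citrate, 30-60 min.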

human IgG = test system: human IgG
How it was run: as §2

bovine IgG = test system: bovine IgG
How it was run: as §2

human IgG1 = target: T1, human IgG1 (Homo sapiens, UniProt P01857)
T1 construct: all human subtypes derived from myeloma patients; purchased Calbiochem 400120; host or cells: myeloma patients
T1 sequence (P01857 1-330 isoform P01857-1): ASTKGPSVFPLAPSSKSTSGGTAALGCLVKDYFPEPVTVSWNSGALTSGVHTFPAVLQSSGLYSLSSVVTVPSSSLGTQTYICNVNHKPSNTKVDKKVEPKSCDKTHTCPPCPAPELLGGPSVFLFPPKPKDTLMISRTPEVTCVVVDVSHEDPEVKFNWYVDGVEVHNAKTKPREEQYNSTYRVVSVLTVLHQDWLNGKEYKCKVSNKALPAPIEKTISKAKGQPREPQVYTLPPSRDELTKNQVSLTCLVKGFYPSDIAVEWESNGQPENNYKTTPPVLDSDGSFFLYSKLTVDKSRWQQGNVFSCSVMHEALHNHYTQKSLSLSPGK
How it was run: as §2

mouse IgG = test system: mouse IgG
How it was run: as §2

human IgG2 = target: T2, human IgG2 (Homo sapiens, UniProt P01859)
T2 construct: all human subtypes derived from myeloma patients; purchased Calbiochem 400122; host or cells: myeloma patients
T2 sequence (P01859 1-326 isoform P01859-1): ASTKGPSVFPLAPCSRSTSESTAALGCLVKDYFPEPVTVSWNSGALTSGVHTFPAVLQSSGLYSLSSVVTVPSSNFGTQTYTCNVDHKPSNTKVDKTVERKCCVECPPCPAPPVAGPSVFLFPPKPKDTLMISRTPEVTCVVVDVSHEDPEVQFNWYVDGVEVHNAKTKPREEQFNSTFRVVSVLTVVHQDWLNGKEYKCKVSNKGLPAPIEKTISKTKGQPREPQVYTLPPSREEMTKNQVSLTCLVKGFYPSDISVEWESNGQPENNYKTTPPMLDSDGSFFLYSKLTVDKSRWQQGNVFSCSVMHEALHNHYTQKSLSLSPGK
How it was run: as §1

IgG3 = IgG3 (Homo sapiens, UniProt P01860); design: all human subtypes derived from myeloma patients; purchased Calbiochem 400124; host or cells: myeloma patients
Chain of IgG3 (P01860 1-377 isoform P01860-1): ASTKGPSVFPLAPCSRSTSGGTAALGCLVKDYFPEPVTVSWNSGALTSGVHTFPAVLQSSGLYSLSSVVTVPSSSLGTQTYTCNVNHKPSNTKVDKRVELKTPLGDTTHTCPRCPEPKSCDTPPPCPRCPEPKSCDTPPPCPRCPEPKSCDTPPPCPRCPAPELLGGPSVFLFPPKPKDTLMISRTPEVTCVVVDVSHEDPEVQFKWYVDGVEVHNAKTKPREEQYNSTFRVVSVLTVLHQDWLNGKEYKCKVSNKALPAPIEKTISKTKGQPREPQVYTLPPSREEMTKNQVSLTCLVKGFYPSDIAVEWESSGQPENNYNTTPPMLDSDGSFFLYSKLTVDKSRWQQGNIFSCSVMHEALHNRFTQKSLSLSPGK
How it was run: as §2

[1] = Table 9, immobilized peptide, 5.0 mg/ml resin load
[2] = Table 10, elution 0.1 M sodium bicarbonate buffer, pH 8.5
[3] = Table 10, elution 0.1 M sodium citrate buffer, pH 4.0

Chain of IgG4 (P01861 1-327 isoform P01861-1): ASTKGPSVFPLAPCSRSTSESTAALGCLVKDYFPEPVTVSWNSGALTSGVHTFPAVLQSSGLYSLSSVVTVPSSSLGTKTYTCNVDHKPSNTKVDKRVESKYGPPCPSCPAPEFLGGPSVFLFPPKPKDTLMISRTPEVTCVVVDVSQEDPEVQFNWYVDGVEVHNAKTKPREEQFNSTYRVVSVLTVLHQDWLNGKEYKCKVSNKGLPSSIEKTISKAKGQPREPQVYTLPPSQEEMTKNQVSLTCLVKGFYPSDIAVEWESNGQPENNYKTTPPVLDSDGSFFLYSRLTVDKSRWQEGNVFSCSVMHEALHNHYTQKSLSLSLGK

CC[C@H](C)[C@@H]1NC(=O)[C@H](CC(C)C)NC(=O)[C@H](CCC(=O)O)NC(=O)CNC(=O)[C@H](Cc2c[nH]c3ccccc23)NC(=O)[C@H]([C@@H](C)O)NC(=O)[C@H]([C@@H](C)O)NC(=O)[C@H](Cc2ccc(O)cc2)NC(=O)[C@H](C(C)C)NC(=O)[C@@H](NC(=O)[C@H](CCSC)NC(=O)[C@H](Cc2c[nH]cn2)NC(=O)[C@H](CC(=O)O)NC(=O)[C@H](CC(=O)O)NC(=O)CNC(C)=O)CSSC[C@@H](C(=O)N[C@@H](CC(=O)O)C(=O)N[C@@H](CC(N)=O)C(=O)N[C@@H](Cc2c[nH]cn2)C(=O)N[C@@H](CCC(=O)O)C(=O)N2CCC[C@H]2C(=O)NCC(=O)N2CCC[C@H]2C(=O)N[C@@H](CCC(=O)O)C(=O)NCC(=O)NCC(=O)NCC(=O)N[C@@H](CCCCN)C(N)=O)NC(=O)[C@H](Cc2c[nH]c3ccccc23)NC1=O [DX249] (Ac-GDDHMCVYTTWGELIWCDNHEPGPEGGGK-NH2; disulfide 6-17)
% IgG Capture - Batch Binding, Human IgG4 (IgG4; [1]): 82% | Human IgG4 bdg % (% of Total Load) (IgG4; Table 10, batch binding): 82% | Human IgG4 elu pH 8.5 (% of Total Load) (IgG4; [2]): 66% | Human IgG4 elu pH 4.0 (% of Total Load) (IgG4; [3]): 54% | hIgG4 elution pH 2.5 (% of Total Load) (IgG4; Table 13): 42% | hIgG4 elution pH 3.0 (% of Total Load) (IgG4; Table 13): 43% | hIgG4 elution pH 3.5 (% of Total Load) (IgG4; Table 13): 30% | hIgG4 elution pH 4.5 (% of Total Load) (IgG4; Table 13): 10% | hIgG4 elution pH 5.5 (% of Total Load) (IgG4; Table 13): 4% | hIgG4 elution pH 9.0 (% of Total Load) (IgG4; Table 13): 53% | hIgG4 elution pH 9.5 (% of Total Load) (IgG4; Table 13): 59% | % IgG Capture - Batch Binding, Goat IgG (goat IgG): 0% | % IgG Capture - Batch Binding, Human IgG (human IgG): 84% | % IgG Capture - Batch Binding, Bovine IgG (bovine IgG): 0% | % IgG Capture - Batch Binding, Human IgG1 (human IgG1; [1]): 91% | Human IgG1 bdg % (% of Total Load) (human IgG1; Table 10, batch binding): 91% | Human IgG1 elu pH 8.5 (% of Total Load) (human IgG1; [2]): 63% | Human IgG1 elu pH 4.0 (% of Total Load) (human IgG1; [3]): 51% | hIgG1 elution pH 2.5 (% of Total Load) (human IgG1; Table 13): 65% | hIgG1 elution pH 3.0 (% of Total Load) (human IgG1; Table 13): 69% | hIgG1 elution pH 3.5 (% of Total Load) (human IgG1; Table 13): 69% | hIgG1 elution pH 4.5 (% of Total Load) (human IgG1; Table 13): 37% | hIgG1 elution pH 5.5 (% of Total Load) (human IgG1; Table 13): 1% | hIgG1 elution pH 9.0 (% of Total Load) (human IgG1; Table 13): 65% | hIgG1 elution pH 9.5 (% of Total Load) (human IgG1; Table 13): 68% | % IgG Capture - Batch Binding, Mouse IgG (mouse IgG): 0% | % IgG Capture - Batch Binding, Human IgG2 (human IgG2; [1]): 92% | Human IgG2 bdg % (% of Total Load) (human IgG2; Table 10, batch binding): 92% | Human IgG2 elu pH 8.5 (% of Total Load) (human IgG2; [2]): 54% | Human IgG2 elu pH 4.0 (% of Total Load) (human IgG2; [3]): 63% | hIgG2 elution pH 2.5 (% of Total Load) (human IgG2; Table 13): 71% | hIgG2 elution pH 3.0 (% of Total Load) (human IgG2; Table 13): 73% | hIgG2 elution pH 3.5 (% of Total Load) (human IgG2; Table 13): 63% | hIgG2 elution pH 4.5 (% of Total Load) (human IgG2; Table 13): 39% | hIgG2 elution pH 5.5 (% of Total Load) (human IgG2; Table 13): 1% | hIgG2 elution pH 9.0 (% of Total Load) (human IgG2; Table 13): 60% | hIgG2 elution pH 9.5 (% of Total Load) (human IgG2; Table 13): 67% | % IgG Capture - Batch Binding, Human IgG3 (IgG3; [1]): 0% | Human IgG3 bdg % (% of Total Load) (IgG3; Table 10, batch binding): 3% | Human IgG3 elu pH 8.5 (% of Total Load) (IgG3; [2]): 0% | Human IgG3 elu pH 4.0 (% of Total Load) (IgG3; [3]): 0% | hIgG3 elution pH 2.5 (% of Total Load) (IgG3; Table 13): 0% | hIgG3 elution pH 3.0 (% of Total Load) (IgG3; Table 13): 0% | hIgG3 elution pH 3.5 (% of Total Load) (IgG3; Table 13): 0% | hIgG3 elution pH 4.5 (% of Total Load) (IgG3; Table 13): 0% | hIgG3 elution pH 5.5 (% of Total Load) (IgG3; Table 13): 0% | hIgG3 elution pH 9.0 (% of Total Load) (IgG3; Table 13): 0% | hIgG3 elution pH 9.5 (% of Total Load) (IgG3; Table 13): 0%
